In ChEMBL document CHEMBL1145605, “Novel 2-imidazoles as potent and selective alpha1A adrenoceptor partial agonists” (Bioorg Med Chem Lett, 2008):

What was measured:
[1] = molecular target: T1, Alpha-1A adrenergic receptor (Homo sapiens, UniProt P35348); assay: Agonist activity at human cloned adrenergic alpha-1A receptor expressed in CHO cells assessed as calcium mobilization by FLIPR; type: functional, cell-based
T1 sequence (P35348 whole entry): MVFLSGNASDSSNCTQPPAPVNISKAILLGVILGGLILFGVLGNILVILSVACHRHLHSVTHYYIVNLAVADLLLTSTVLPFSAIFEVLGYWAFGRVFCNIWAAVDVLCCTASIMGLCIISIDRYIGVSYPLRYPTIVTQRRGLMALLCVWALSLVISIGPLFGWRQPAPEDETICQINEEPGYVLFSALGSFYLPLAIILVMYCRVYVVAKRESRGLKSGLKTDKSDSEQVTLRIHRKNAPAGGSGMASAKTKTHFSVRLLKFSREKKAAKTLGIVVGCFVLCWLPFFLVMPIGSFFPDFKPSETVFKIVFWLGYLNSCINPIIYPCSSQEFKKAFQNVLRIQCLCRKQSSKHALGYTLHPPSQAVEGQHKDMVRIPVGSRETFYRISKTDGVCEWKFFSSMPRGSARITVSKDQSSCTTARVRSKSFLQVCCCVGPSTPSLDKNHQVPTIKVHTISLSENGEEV

[2] = molecular target: T2, Alpha-1A adrenergic receptor (Homo sapiens) (UniProt P35348); assay: Agonist activity at human cloned adrenergic alpha-1A receptor expressed in CHO cells assessed as calcium mobilization by FLIPR relative to phenylephrine; type: functional, cell-based
T2 sequence (whole entry): T1 sequence (P35348 whole entry)

[3] = molecular target: T3, Alpha-1B adrenergic receptor (Homo sapiens, UniProt P35368); assay: Agonist activity at human cloned adrenergic alpha-1B receptor expressed in CHO cells assessed as calcium mobilization by FLIPR; type: functional, cell-based
T3 sequence (P35368 whole entry): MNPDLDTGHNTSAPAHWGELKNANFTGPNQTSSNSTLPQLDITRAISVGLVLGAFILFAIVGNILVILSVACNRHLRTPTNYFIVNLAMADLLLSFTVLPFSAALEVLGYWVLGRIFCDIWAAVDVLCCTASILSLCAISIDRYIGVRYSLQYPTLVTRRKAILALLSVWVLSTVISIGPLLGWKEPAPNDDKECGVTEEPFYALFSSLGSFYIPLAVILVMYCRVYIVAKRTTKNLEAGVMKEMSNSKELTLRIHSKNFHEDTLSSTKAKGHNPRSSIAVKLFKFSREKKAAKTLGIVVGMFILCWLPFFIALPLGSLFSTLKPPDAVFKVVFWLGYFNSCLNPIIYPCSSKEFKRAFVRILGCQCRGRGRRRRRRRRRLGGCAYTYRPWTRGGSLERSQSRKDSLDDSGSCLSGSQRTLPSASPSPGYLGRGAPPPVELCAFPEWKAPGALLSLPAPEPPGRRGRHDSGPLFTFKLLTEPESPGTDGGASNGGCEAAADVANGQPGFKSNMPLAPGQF

[4] = molecular target: T4, Alpha-1D adrenergic receptor (Homo sapiens, UniProt P25100); assay: Agonist activity at human cloned adrenergic Alpha-1D receptor expressed in CHO cells assessed as calcium mobilization by FLIPR; type: functional, cell-based
T4 sequence (P25100 whole entry): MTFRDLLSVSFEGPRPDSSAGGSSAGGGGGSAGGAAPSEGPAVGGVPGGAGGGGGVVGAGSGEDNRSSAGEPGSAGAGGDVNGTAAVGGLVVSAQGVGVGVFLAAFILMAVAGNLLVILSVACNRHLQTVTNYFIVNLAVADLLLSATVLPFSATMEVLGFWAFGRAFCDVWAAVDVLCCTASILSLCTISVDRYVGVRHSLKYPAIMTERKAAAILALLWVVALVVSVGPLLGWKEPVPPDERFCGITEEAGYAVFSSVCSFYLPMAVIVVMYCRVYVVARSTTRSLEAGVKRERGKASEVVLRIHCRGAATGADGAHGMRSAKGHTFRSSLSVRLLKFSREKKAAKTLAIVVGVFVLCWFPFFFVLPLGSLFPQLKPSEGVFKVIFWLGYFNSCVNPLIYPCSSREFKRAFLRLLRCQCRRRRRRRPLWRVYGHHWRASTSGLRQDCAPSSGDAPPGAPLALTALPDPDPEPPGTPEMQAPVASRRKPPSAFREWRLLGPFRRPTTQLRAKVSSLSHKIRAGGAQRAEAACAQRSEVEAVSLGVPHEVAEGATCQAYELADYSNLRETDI

[5] = molecular target: T5, Alpha-2A adrenergic receptor (Homo sapiens, UniProt P08913); assay: Agonist activity at human cloned adrenergic alpha-2A receptor expressed in CHOK1 cells by beta-lactamase reporter gene assay; type: functional, cell-based, CHO-K1
T5 sequence (P08913 whole entry): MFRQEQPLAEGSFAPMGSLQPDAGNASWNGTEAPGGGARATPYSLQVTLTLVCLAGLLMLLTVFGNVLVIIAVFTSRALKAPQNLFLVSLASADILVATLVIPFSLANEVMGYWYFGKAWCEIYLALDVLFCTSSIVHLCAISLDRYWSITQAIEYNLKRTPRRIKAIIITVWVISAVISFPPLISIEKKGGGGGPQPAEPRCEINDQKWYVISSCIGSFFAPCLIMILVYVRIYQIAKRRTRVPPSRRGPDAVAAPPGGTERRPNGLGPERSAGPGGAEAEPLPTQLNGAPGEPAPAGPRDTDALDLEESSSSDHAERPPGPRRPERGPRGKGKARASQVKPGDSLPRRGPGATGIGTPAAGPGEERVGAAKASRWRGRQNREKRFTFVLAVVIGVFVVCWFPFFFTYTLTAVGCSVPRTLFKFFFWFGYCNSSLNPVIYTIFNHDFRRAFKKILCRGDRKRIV

[6] = molecular target: T6, Alpha-1D adrenergic receptor (Homo sapiens) (UniProt P25100); assay: Agonist activity at human cloned adrenergic Alpha-1D receptor expressed in CHO cells assessed as calcium mobilization by FLIPR relative to phenylephrine; type: functional, cell-based
T6 sequence (whole entry): T4 sequence (P25100 whole entry)

[7] = molecular target: T7, Alpha-2A adrenergic receptor (Homo sapiens) (UniProt P08913); assay: Agonist activity at human cloned adrenergic alpha-2A receptor expressed in CHOK1 cells by beta-lactamase reporter gene assay relative to dexmeditomidine; type: functional, cell-based; settings: CHO-K1
T7 sequence (whole entry): T5 sequence (P08913 whole entry)

[8] = molecular target: T8, Alpha-1B adrenergic receptor (Homo sapiens) (UniProt P35368); assay: Agonist activity at human cloned adrenergic Alpha-1B receptor expressed in CHO cells assessed as calcium mobilization by FLIPR relative to phenylephrine; type: functional, cell-based
T8 sequence (whole entry): T3 sequence (P35368 whole entry)

Compound	EC50 [1] [nM]	Emax [2] [%]	EC50 [3] [nM]	EC50 [4] [nM]	EC50 [5] [nM]	Emax [6] [%]	Emax [7] [%]	EC50 ([3]; cho) [nM]	EC50 ([4]; cho) [nM]	EC50 ([5]; cho-k1) [nM]	Emax [8] [%]
Cn1nccc1-c1cccc2c1CCC2c1ncc[nH]1 (stereo not drawn)	278	58	> 10000	> 10000	> 10000						
c1cc(-c2cn[nH]c2)c2c(c1)C(c1ncc[nH]1)CC2 (stereo not drawn)	14	84	> 10000	319	> 10000	52					
Clc1ccc2c(c1-c1cn[nH]c1)CCC2c1ncc[nH]1 (stereo not drawn)	78		> 10000	> 10000	> 10000						
CS(=O)(=O)Nc1cccc2c1CCCC2c1ncc[nH]1 (stereo in doubt; 17b) [listing 1 of 2 here]		47									
COc1cccc2c1CCC2c1ncc[nH]1 (stereo not drawn)	32	65	> 10000	> 10000	27		100				
Cn1ccc(-c2cccc3c2CCC3c2ncc[nH]2)n1 (stereo not drawn)	> 1300	19	> 10000	> 10000	> 10000						
CS(=O)(=O)Nc1cccc2c1CCCC2c1ncc[nH]1 (stereo in doubt; 17a) [listing 1 of 2 here]	142							> 10000	> 10000	> 10000	
c1cc(-c2nccs2)c2c(c1)C(c1ncc[nH]1)CC2 (stereo not drawn)	426	64	> 10000	3190	> 10000	27					
CCCS(=O)(=O)Nc1cccc2c1CCC2c1ncc[nH]1 (stereo not drawn)	1340	54	> 10000	> 10000							
CS(=O)(=O)Nc1cccc2c1CCCC2c1ncc[nH]1 (stereo in doubt; 17) [listing 1 of 2 here]		79									
c1cc(-c2ccn[nH]2)c2c(c1)C(c1ncc[nH]1)CC2 (stereo not drawn)		83				57					32
c1ccc2c(c1)CCC2c1ncc[nH]1 (stereo not drawn)	473	54	> 10000	> 10000							
CNC(=O)c1cccc2c1CCC2c1ncc[nH]1 (stereo not drawn)	2200	59	> 10000	> 10000	4340		44				
CS(=O)(=O)Nc1cccc2c1CCCC2c1ncc[nH]1 (stereo in doubt; 17b) [listing 2 of 2 here]	2150		> 10000	> 10000	> 10000						
CCS(=O)(=O)Nc1cccc2c1CCC2c1ncc[nH]1 (stereo not drawn)	32	86	> 10000	> 10000	> 10000						
Cc1n[nH]cc1-c1cccc2c1CCC2c1ncc[nH]1 (stereo not drawn)		91				66					14
c1cncc(-c2cccc3c2CCC3c2ncc[nH]2)c1 (stereo not drawn)	2060	36	> 10000	> 10000	4580		25				

Compound	EC50 [1] [nM]	Emax [2] [%]	EC50 [3] [nM]	EC50 [4] [nM]	EC50 [5] [nM]	Emax [6] [%]	Emax [7] [%]	EC50 ([3]; cho) [nM]	EC50 ([4]; cho) [nM]	EC50 ([5]; cho-k1) [nM]	Emax [8] [%]
Cc1oncc1-c1cccc2c1CCC2c1ncc[nH]1 (stereo not drawn)	111	63	> 10000	> 10000	> 10000						
c1ccc2c(c1)CCCC2c1ncc[nH]1 (stereo not drawn)	385	71	791	364	722	74	105				58
Clc1ccc2c(c1-c1ccn[nH]1)CCC2c1ncc[nH]1 (stereo not drawn)	322	40	> 10000	> 10000	> 10000						
COc1c(Cl)ccc2c1CCC2c1ncc[nH]1 (stereo not drawn)	451	24	> 10000	> 10000							
CS(=O)(=O)Nc1cccc2c1CCCC2c1ncc[nH]1 (stereo in doubt; 17) [listing 2 of 2 here]	234							> 10000	> 10000	> 10000	
Cn1cc(-c2cccc3c2CCC3c2ncc[nH]2)cn1 (stereo not drawn)	> 2900	12	> 10000	> 10000	> 10000						
CCS(=O)(=O)Nc1cccc(Cc2c[nH]cn2)c1	9	96	> 10000	> 10000	> 10000						
CS(=O)(=O)Nc1cccc2c1CCCC2c1ncc[nH]1 (stereo in doubt; 17a) [listing 2 of 2 here]		79									
Cc1[nH]ncc1-c1cccc2c1CCC2c1ncc[nH]1 (stereo not drawn)	3		902	634	> 10000						
c1ccc(-c2cccc3c2CCC3c2ncc[nH]2)nc1 (stereo not drawn)	1150	53	> 10000	> 10000	> 10000						
c1cc(-c2cc[nH]n2)c2c(c1)C(c1ncc[nH]1)CC2 (stereo not drawn)	52		600	336	> 10000						
COc1c(C)ccc2c1CCC2c1ncc[nH]1 (stereo not drawn)	167	40	> 10000	> 10000	327		89				
c1cc(-c2ncco2)c2c(c1)C(c1ncc[nH]1)CC2 (stereo not drawn)	170	63	> 10000	1390	> 10000	38					
CS(=O)(=O)Nc1cccc2c1CCC2c1ncc[nH]1 (stereo not drawn)	70	87	> 10000	> 10000	> 10000						
Cc1c(OCC2=NCCN2)ccc(Cl)c1NS(C)(=O)=O [DABUZALGRON]		60	> 10000	> 10000	> 10000						
Cc1ccc2c(c1NS(C)(=O)=O)CCC2c1ncc[nH]1 (stereo not drawn)	33	83	> 10000	> 10000							
